These are literature values, as cited in patent US9889109B2, “Pharmaceutical composition comprising benzyl alcohol for the treatment of migraines” (St. Renatus, LLC, priority 2012, dated 2018).

Molecules are shown by their SMILES.

As to `CCCCNc1ccc(C(=O)OCCN(C)C)cc1` [tetracaine, 2-(dimethylamino)ethyl 4-(butylamino)benzoate], the pKa result is “approximately 8.4”. Also, where the note is “pH 7.4”, the unionized molecules is listed as 1-2%.
